Assays:
Format in all cases: in vivo
[1] = tested on: Abuthilon theophrasti (ABUTH); experiment: Herbicidal glasshouse test, post-emergence; conditions: POST Application, evaluated after 13 days; for damage to plant (100=total damage to plant; 0=no damage to plant): 250 g/ha; for pest or weed control at 250 g/ha: Abutilon theophrasti, post-emergence, 312 h, read-out: damage to plant (100=total damage to plant; 0=no damage to plant)
Method: (§1) Seeds of a variety of test species were sown in standard soil in pots (Alopecurus myosuroides (ALOMY), Setaria faberi (SETFA), Echinochloa crus-galli (ECHCG), Abuthilon theophrasti (ABUTH) and Amaranthus retoflexus (AMARE)). After cultivation for one day (pre-emergence) or after 8 days cultivation (post-emergence) under controlled conditions in a glasshouse (at 24/16° C., day/night; 14 hours light; 65% humidity), the plants were sprayed with an aqueous spray solution derived from the formulation of the technical active ingredient in acetone/water (50:50) solution containing 0.5% Tween 20 (polyoxyethelyene sorbitan monolaurate, CAS RN 9005-64-5). Compounds were applied at 250 g/ha. The test plants were then grown in a glasshouse under controlled conditions in a glasshouse (at 24/16° C., day/night; 14 hours light; 65% humidity) and watered twice daily. After 13 days for pre and post-emergence, the test was evaluated (100=total damage to plant; 0=no damage to plant).

[2] = tested on: Alopecurus myosuroides (ALOMY); experiment: Herbicidal glasshouse test, post-emergence; conditions: POST Application, evaluated after 13 days; for damage to plant (100=total damage to plant; 0=no damage to plant): 250 g/ha; for pest or weed control at 250 g/ha: Alopecurus myosuroides, post-emergence, 312 h, read-out: damage to plant (100=total damage to plant; 0=no damage to plant)
Method: as §1

[3] = tested on: Amaranthus retoflexus (AMARE); experiment: Herbicidal glasshouse test, post-emergence; conditions: POST Application, evaluated after 13 days; for damage to plant (100=total damage to plant; 0=no damage to plant): 250 g/ha; for pest or weed control at 250 g/ha: Amaranthus retroflexus, post-emergence, 312 h, read-out: damage to plant (100=total damage to plant; 0=no damage to plant)
Method: as §1

[4] = tested on: Echinochloa crus-galli (ECHCG); experiment: Herbicidal glasshouse test, post-emergence; conditions: POST Application, evaluated after 13 days; for damage to plant (100=total damage to plant; 0=no damage to plant): 250 g/ha; for pest or weed control at 250 g/ha: Echinochloa crus-galli, post-emergence, 312 h, read-out: damage to plant (100=total damage to plant; 0=no damage to plant)
Method: as §1

Setaria faberi (SETFA) [5] = experiment: Herbicidal glasshouse test, post-emergence; conditions: POST Application, evaluated after 13 days; for damage to plant (100=total damage to plant; 0=no damage to plant): 250 g/ha; for pest or weed control at 250 g/ha: Setaria faberi, post-emergence, 312 h, read-out: damage to plant (100=total damage to plant; 0=no damage to plant)
Method: as §1

[6] = tested on: Abuthilon theophrasti (ABUTH); experiment: Herbicidal glasshouse test, pre-emergence; conditions: PRE Application, evaluated after 13 days; for damage to plant (100=total damage to plant; 0=no damage to plant): 250 g/ha; for pest or weed control at 250 g/ha: Abutilon theophrasti, pre-emergence, 312 h, read-out: damage to plant (100=total damage to plant; 0=no damage to plant)
Method: as §1

[7] = tested on: Alopecurus myosuroides (ALOMY); experiment: Herbicidal glasshouse test, pre-emergence; conditions: PRE Application, evaluated after 13 days; for damage to plant (100=total damage to plant; 0=no damage to plant): 250 g/ha; for pest or weed control at 250 g/ha: Alopecurus myosuroides, pre-emergence, 312 h, read-out: damage to plant (100=total damage to plant; 0=no damage to plant)
Method: as §1

[8] = tested on: Amaranthus retoflexus (AMARE); experiment: Herbicidal glasshouse test, pre-emergence; conditions: PRE Application, evaluated after 13 days; for damage to plant (100=total damage to plant; 0=no damage to plant): 250 g/ha; for pest or weed control at 250 g/ha: Amaranthus retroflexus, pre-emergence, 312 h, read-out: damage to plant (100=total damage to plant; 0=no damage to plant)
Method: as §1

[9] = tested on: Echinochloa crus-galli (ECHCG); experiment: Herbicidal glasshouse test, pre-emergence; conditions: PRE Application, evaluated after 13 days; for damage to plant (100=total damage to plant; 0=no damage to plant): 250 g/ha; for pest or weed control at 250 g/ha: Echinochloa crus-galli, pre-emergence, 312 h, read-out: damage to plant (100=total damage to plant; 0=no damage to plant)
Method: as §1

Setaria faberi (SETFA) [10] = experiment: Herbicidal glasshouse test, pre-emergence; conditions: PRE Application, evaluated after 13 days; for damage to plant (100=total damage to plant; 0=no damage to plant): 250 g/ha; for pest or weed control at 250 g/ha: Setaria faberi, pre-emergence, 312 h, read-out: damage to plant (100=total damage to plant; 0=no damage to plant)
Method: as §1

Row | Compound | damage to plant (100=total damage to plant; 0=no damage to plant) [1] | damage to plant (100=total damage to plant; 0=no damage to plant) [2] | damage to plant (100=total damage to plant; 0=no damage to plant) [3] | damage to plant (100=total damage to plant; 0=no damage to plant) [4] | damage to plant (100=total damage to plant; 0=no damage to plant) (Setaria faberi (SETFA) [5]) | damage to plant (100=total damage to plant; 0=no damage to plant) [6] | damage to plant (100=total damage to plant; 0=no damage to plant) [7] | damage to plant (100=total damage to plant; 0=no damage to plant) [8] | damage to plant (100=total damage to plant; 0=no damage to plant) [9] | damage to plant (100=total damage to plant; 0=no damage to plant) (Setaria faberi (SETFA) [10]) | pest or weed control at 250 g/ha [1] | pest or weed control at 250 g/ha [2] | pest or weed control at 250 g/ha [3] | pest or weed control at 250 g/ha [4] | pest or weed control at 250 g/ha (Setaria faberi (SETFA) [5]) | pest or weed control at 250 g/ha [6] | pest or weed control at 250 g/ha [7] | pest or weed control at 250 g/ha [8] | pest or weed control at 250 g/ha [9] | pest or weed control at 250 g/ha (Setaria faberi (SETFA) [10])
1 | O=C1CCCC(=O)C1C(=O)c1cc2cc(F)cnc2n(-c2cccc(Cl)c2)c1=O [Compound 4.25] | 80 | 80 | 70 | 80 | 80 | 90 | 90 | 50 | 100 | 100 |  |  |  |  |  |  |  |  |  | 
2 | O=C1CCCC(=O)C1C(=O)c1cc2cc(F)cnc2n(CCC=C(F)F)c1=O [Compound 1.48] | 80 | 70 | 40 | 80 | 80 | 90 | 80 | 100 | 100 | 90 |  |  |  |  |  |  |  |  |  | 
3 | COc1ccc(Cn2c(=O)c(C(=O)C3C(=O)CCCC3=O)cc3cc(F)cnc32)cc1 [Compound 4.17] | 70 | 0 | 50 | 80 | 60 | 70 | 0 | 90 | 70 | 20 |  |  |  |  |  |  |  |  |  | 
4 | O=C1CCCC(=O)C1C(=O)c1cc2cc(F)cnc2n(-c2cc(Cl)cc(Cl)c2)c1=O [Compound 4.23] | 80 | 70 | 80 | 80 | 70 | 80 | 90 | 70 | 100 | 90 |  |  |  |  |  |  |  |  |  | 
5 | COc1ccccc1-n1c(=O)c(C(=O)C2C(=O)CCCC2=O)cc2cc(F)cnc21 [Compound 4.33] | 80 | 100 | 80 | 90 | 90 | 100 | 100 | 100 | 100 | 100 |  |  |  |  |  |  |  |  |  | 
6 | Cc1ccc2cc(C(=O)C3C(=O)CCCC3=O)c(=O)n(C)c2n1 [Compound 1.2, 2-(1,7-Dimethyl-2-oxo-1,2-dihydro[1,8]-naphthyridine-3-carbonyl)-cyclohexane-1,3-dione] |  |  |  |  |  |  |  |  |  |  | 80% | 40% | 80% | 80% | 80% | 70% | 20% | 40% | 90% | 70%
7 | COc1ccc(-n2c(=O)c(C(=O)C3C(=O)CCCC3=O)cc3cc(F)cnc32)cc1 [Compound 4.18] | 80 | 80 | 80 | 80 | 80 | 90 | 70 | 90 | 100 | 70 |  |  |  |  |  |  |  |  |  | 
8 | Cn1c(=O)c(C(=O)C2C(=O)CCCC2=O)cc2cccnc21 [Compound 1.29] |  |  |  |  |  |  |  |  |  |  | 90% | 30% | 90% | 80% | 90% | 90% | 30% | 100% | 100% | 10%
9 | COCn1c(=O)c(C(=O)C2C(=O)CCCC2=O)cc2cc(F)cnc21 [Compound 1.43] |  |  |  |  |  |  |  |  |  |  | 80% | 60% | 80% | 80% | 80% | 100% | 40% | 100% | 100% | 100%
10 | O=C1CCCC(=O)C1C(=O)c1cc2cc(F)cnc2n(-c2cccc(C(F)(F)F)c2)c1=O [Compound 4.11] | 100 | 90 | 90 | 90 | 90 | 90 | 70 | 100 | 90 | 80 |  |  |  |  |  |  |  |  |  | 
11 | O=C1CCCC(=O)C1C(=O)c1cc2cc(F)cnc2n(Cc2ccccc2F)c1=O [Compound 4.15] | 80 | 30 | 50 | 80 | 70 | 70 | 0 | 50 | 80 | 0 |  |  |  |  |  |  |  |  |  | 
12 | COCCn1c(=O)c(C(=O)C2C(=O)CCCC2=O)cc2cc(F)c(C)nc21 [Compound 1.47] |  |  |  |  |  |  |  |  |  |  | 70% | 80% | 70% | 90% | 80% | 90% | 50% | 100% | 90% | 90%
13 | CCn1c(=O)c(C(=O)C2C(=O)CCCC2=O)cc2cc(F)cnc21 [Compound 1.49] |  |  |  |  |  |  |  |  |  |  | 80% | 70% | 70% | 80% | 70% | 90% | 60% | 100% | 100% | 90%
